According to patent US5985824A, “Methods and compositions for treating cystic fibrosis” (priority 1997, dated 1999):
Entries after “also recorded” stand apart in the source; their conditions may differ.

Legend:
[1] = test system: ΔF508-CFTR (IBE-1 cells); assay: SPQ halide efflux assay, cAMP-stimulated Cl- channel activity, IBE-1 cells; format: cell-based, human; conditions: DSG 5 to 50 μg/ml, 72 h
Protocol: The cAMP-dependent CFTR Cl^- channel activity was assessed using the halide-sensitive fluorophore 6-methoxy-N-(3-sulfopropyl)-quinolinium (SPQ) essentially as described previously (Cheng et al., (1995), supra.; Marshall et al., supra.). Briefly, the cells were treated with different amounts of DSG for the times specified. At the end of the treatment period, the cells were loaded with SPQ by hypotonic shock for 4 min at room temperature. SPQ fluorescence initially was quenched by incubating the cells for up to 30 min in a NaI buffer (135 mM NaI, 2.4 mM K2 HPO4, 0.6 mM KH2 PO4, 1 mM MgSO4, 1 mM CaSO4, 10 mM dextrose, and 10 mM N-2 hydroxyethylpiperazine-N'2-ethanesulfonic acid, pH 7.4). After measuring the baseline fluorescence (Fo) for 2 min., the NaI solution was replaced with one containing 135 mM NaNO3, and fluorescence was measured for another 16 min. […]
An increase in halide permeability is reflected by a more rapid increase in SPQ fluorescence. […] Differences in absolute levels reflect quantitative differences between groups in SPQ loading, size of cells, or number of cells studied. The data are presented as means± SE of fluorescence at time t (Ft) minus the baseline fluorescence (Fo, the average fluorescence measured in the presence of I^- for 2 min. before ion substitution) and are representative of results obtained under each condition. […]

[2] = test system: ΔF508-CFTR (IBE-1 cells); assay: whole cell patch-clamp analysis of IBE-1 cells; format: cell-based, human; conditions: for reversal potential: DSG-treated cells
Protocol: The bath (extracellular) solution contained: 140 mM N-methyl-Dglucamine (NMDG), 2 mM CaCl2, 1 mM MgCl2, 0.1 mM CdCl2, 10 mM HEPES, 4 mM CsCl, and 10 mM glucose, pH 7.4. These solutions were designed so as to study only currents flowing through Cl^- channels, since Cl^- was the only significant permeant ion in the solutions. Furthermore, Ca^2+ -activated Cl^- currents were minimized by inclusion of 10 mM EGTA in the intracellular solution and 100 μM of Cd^2+ in the extracellular bath. K^+ currents were minimized by including 20 mM TEA in the intracellular solution. Aspartate was used as the replacement anion in experiments in which extracellular Cl^- concentration was changed. Forskolin (10 μM), IBMX (100 μM), 8-(4-chlorophenylthio)-cAMP (cpt-cAMP, 200 μM), diphenylamine carboxylic acid (DPC, 200 μM), UTP (100 μM), and ionomycin (1 μM) were added to the bath solutions as indicated. Current recordings were made from the same cells before, during, and after exposure to the solutions containing the different agonists or inhibitors. All experiments were performed at room temperature (22° C.). Currents were filtered at 2 kHz. Data acquisition and analysis were performed using the PCLAMP 5.5.1 software (Axon Instruments, Foster City, Calif.).
In all of the successfully patched CF IBE-1 cells from 6 separate coverslips no activation of whole cell currents in response to forskolin (10 μM) plus IBMX (100 μM) or cpt-cAMP (200 μM) was detected (FIG. 10A and 10B), indicating no endogenous CFTR channel activity in these cells. In contrast, in 7 out of 19 successful patched cells from 19 separate coverslips treated with DSG (10 μM) for 48 to 72 hrs. a significant activation of whole cell currents was observed. As all the other cells, the holding potential was 0 m, which inactivated the voltage-gated Na^+ and Ca^++ channels. After addition of 200 μM cpt-cAMP to the bath solution, voltage steps from the holding potential to between -100 mV and 80 mV in 20 mV increments activated whole cell currents. In these experiments, the intracellular and extracellular solutions were designed to study only current flowing through Cl^- channels, since Cl^- is the only significant permeant ion in solution. Ca^++ and K^+ currents were minimized by 100 μM of extracellular Cd^++ and 20 mM of intracellular TEA respectively. Furthermore, the currents were ascertained to be Cl^- currents from change in the reversal potential which was shifted from 1.1±1.5 to 47.3±6.1 mV by reducing extracellular Cl^- from 150 mM to 20 mM.
It is highly unlikely that Ca^++ -activated Cl^- was recorded in these experiments because of the presence of 10 mM intracellular EGTA and 100 µM extracellular Cd^++. […] Special attention was paid to detect possible contribution of the outwardly rectifying Cl^- channel (ORCC) to the whole cell currents. Because of a possible upregulatory role of CFTR, ORCC can be activated in normal but not in CF airway epithelial cells (Hwang et al. (1989), supra.; Li et al. (1988), Nature 331: 358-360; Morris and Frizzel (1993); Am. J. Physiol.; Schwiebert et al. (1994), Am. J. Physiol.).

`N=C(N)NCCCCCCC(=O)NC(O)C(=O)NCCCCNCCCN` (stereo not drawn) [DSG, deoxyspergualin] was tested, and the “cAMP-stimulated Cl- channel activity, in words” value [1] was “concentration-dependent, with higher concentrations of DSG giving rise to greater transport rates and higher numbers of positively-responding cells; also recorded: comparable to that observed when these cells were cultured at a reduced temperature”, the “cells exhibiting measurable cAMP-stimulated Cl- channel activity” value ([1]; FIG. 9B) was “up to 20%” and the “successfully patched cells with significant activation of whole cell currents” value ([2]; DSG (10 μM) 48 to 72 hrs, cAMP stimulation) was 7 out of 19. For the same compound, the reversal potential ([2]; extracellular Cl- 150 mM) was 1.1±1.5 mV, the reversal potential ([2]; extracellular Cl- reduced to 20 mM) was 47.3±6.1 mV and the “whole cell currents, in words” value ([2]; IBE-1 cells) was “resembled those of wild-type CFTR in epithelial cells; also recorded: almost identical to that recorded in transduced CF IBE-1 cells”.
